In US9215868B2, “Low-foam preparations for crop protection” (Bayer Intellectual Property GmbH, priority 2006, dated 2015):

Tested on: leaves of monocotyledonous crop plants such as corn and dicotyledonous crop plants such as apples
Test: Leaf penetration of water-soluble leaf fertilisers such as urea
Type: in vivo
Details: urea 0.1 to 2% in spray liquor, in presence of 0.05 to 1% of one of the alkyl ether sulfates according to the invention; within a number of days
Text: In the case of foliar application of urea (0.1 to 2% in the spray liqour) to leaves of monocotyledonous crop plants such as corn and also to dicotyledonous crop plants such as apples, the rate of foliar uptake was increased within a number of days by a factor of at least two in the presence of 0.05 to 1% of one of the alkyl ether sulfates according to the invention.

## NC(N)=O [urea]
  factor of increase of rate of foliar uptake: at least two
